This passage reports melting point results from a melting point compilation (Tetko et al.).

As to `Nn1c(S)nnc1-c1cccs1`, the melting point – broadly, the temperature of the solid-liquid transition – is 216 to 220 °C. Under `Cc1nn(CCCl)c(C)c1C=O` stands 49 to 51 °C; under `CCOC(=O)c1oc(N)nc1C`, 219 to 221 °C. As to `Cc1ccc(-c2nc(N)sc2CC(=O)O)cc1`, the melting point was in the range of 218 to 222 °C. For `CC(O)(C(=O)O)c1ccc(F)cc1` (configuration not stated) the value was 89 to 91 °C; for `N#CCOc1ccccc1C=O`, 79 to 81 °C; for `O=C(O)C=Cc1cc(Cl)ccc1OCc1ccccc1Cl`, 195 to 197 °C. As to `CC(C)(C)C(Br)C(=O)O` (configuration not stated), the melting point fell in the range of 62 to 64 °C. Under `CNC(c1ccc(Cl)cc1)c1ccc(Cl)cc1` stands 49 to 51 °C; under `Nc1ccn(Cc2ccccc2)n1`, 56 to 58 °C. For `COC(=O)c1ccc(N)cc1C` the value was 69 to 71 °C. The compound `O=C1CCc2cc(S(=O)(=O)Cl)ccc2N1` came in with a melting point of 205 to 207 °C.

Compound `Nc1cccc(C(=O)N2CCc3ccccc32)c1` had a melting point of 125 to 127 °C. Under `O=C(CCl)Nc1nc2c(s1)CCCC2` stands 144 to 146 °C; under `COC(=O)C1CCc2cn[nH]c2C1` (configuration not stated), 64 to 66 °C. In turn, `Clc1ccnc2ccsc12` displayed a melting point of 32 to 34 °C. Under `COC(=O)c1ccccc1S(=O)(=O)Nc1ccccc1Cl` stands 97 to 99 °C; under `COC(=O)c1sc(N)nc1C`, 171 to 174 °C; under `O=C(O)CNC1CCCC1`, 210 to 212 °C.

`COC(=O)c1cccc(S(=O)(=O)N2CCCCC2)c1`: the melting point fell in the range of 83 to 85 °C. `CC(=O)Nc1c(C)cccc1C(=O)O` had a melting point of 204 to 206 °C. For `COC(=O)c1ccc(OCC2CO2)cc1` (configuration not stated) the value was 59 to 61 °C; for `O=C(O)CCCCN1C(=O)C=CC1=O`, 84 to 86 °C; for `N#CCC(C(=O)O)c1ccccc1` (configuration not stated), 64 to 66 °C.

As for `Nc1cccc(C(=O)N2CCOCC2)c1`, the melting point was 82 to 84 °C. With `N#CCC(=O)Nc1ccccc1Br`, the melting point was in the range of 136 to 138 °C. Under `CCOP(=O)(Cc1cc(Cl)ccc1Cl)OCC` stands 53 to 55 °C. In the case of `CCc1ccc(/C=C/c2cc(C(=O)O)c3cc(Br)ccc3n2)cc1`, the melting point was 286 to 288 °C. The compound `CC(C)(C)OC(=O)NCc1ccc(C(=O)O)o1` yielded a melting point of 131 to 133 °C.

The compound `Clc1ccc2cccnc2c1CBr` showed a melting point of 119 to 121 °C. Under `Cc1cc(Cl)ncc1O` stands 168 to 170 °C. `Cc1ccc(S(N)(=O)=O)c(C)c1` came in with a melting point of 139 to 141 °C.

`CCC(=O)N1CSCC1C(=O)O` (configuration not stated) yielded a melting point of 74 to 76 °C.

Compound `CC(C)(C)OC(=O)N1CCC(CC(=O)O)(C(=O)O)C1` (configuration not stated) had a melting point of 180 to 182 °C. Turning to `Cc1c(C(=O)O)nnn1-c1cccc(Br)c1`, the melting point fell in the range of 184 to 186 °C. For `CCOC=C1C(=O)N(c2ccc(OCC)cc2)C(=O)c2ccccc21` the value was 175 to 177 °C. For `CC1CN(S(=O)(=O)c2ccc(NC(=O)CCl)cc2)CC(C)O1` (configuration not stated) the value was 110 to 112 °C. Under `COc1ccc2[nH]c(C)nc2c1` stands 119 to 121 °C; under `CN(C)C(=O)CCn1cc(Br)cn1`, 64 to 66 °C. `COC(=O)c1n[nH]c(=O)c2ccccc12` showed a melting point of 127 to 129 °C.

Compound `O=C(CCl)N1CCN(S(=O)(=O)c2c(F)cccc2F)CC1` showed a melting point of 119 to 121 °C. Compound `CCc1noc(CC)c1CC(=O)O` gave a melting point of 73 to 75 °C. `COc1ccc(C)cc1NC(=O)CNC(=O)CCl` registered a melting point of 121 to 123 °C. Under `Nc1ccc2c(c1)C(=O)NCC2` stands 119 to 121 °C. Under `CC(=O)c1ccc(OC2CCOCC2)cc1` stands 72 to 74 °C; under `CSc1nc(C(=O)O)c2ccccn12`, 202 to 204 °C. Take `CCn1c(C=O)nc2ccccc21`: the melting point was in the range of 49 to 51 °C. In turn, `Nc1ccc(Oc2ccccc2)cn1` had a melting point of 67 to 69 °C. `O=C(c1ccc(Cl)nc1)N1CCc2ccccc21` came in with a melting point of 132 to 134 °C. For `O=C(Nc1cccc2c1CCCN2)c1ccc(F)cc1` the value was 156 to 158 °C; for `O=C(O)CCC(=O)c1ccc2c(c1)CCCC2`, 122 to 124 °C. For `Nc1ccc(S(=O)(=O)C(F)(F)F)cc1` the value was 94 to 96 °C; for `Fc1cc(Br)cc2c(Cl)cc(C(F)(F)F)nc12`, 91 to 93 °C. Under `Cc1nnc2n1CC(C(=O)O)CC2` (configuration not stated) stands 249 to 251 °C; under `CC(=O)Nc1cc(C(=O)O)ccc1C`, 277 to 279 °C. In turn, `Brc1cccc(-n2cnnn2)c1` yielded a melting point of 90 to 92 °C. `COC(=O)c1ccccc1CBr` returned a melting point of 31 to 33 °C. Under `Cc1ccc(-c2nc(C=O)co2)cc1` stands 92 to 94 °C; under `Nc1ccc(F)c(S(=O)(=O)NC2CC2)c1`, 107 to 109 °C. For `O=C(O)COc1ccc2c(c1)CCC2` the value was 154 to 156 °C. `O=C(NC1CCCC1)c1ccc(Cl)nn1` yielded a melting point of 139 to 141 °C.

With `CCOC(=O)C(C(C)=O)C1CCS(=O)(=O)C1` (configuration not stated), the melting point is 71 to 80 °C.

`NC(=O)NCCc1cccs1` had a melting point of 88 to 98 °C.

As for `O=C(O)c1ccc(N2CCc3ccccc3C2)cc1`, the melting point fell in the range of 209 to 211 °C. Turning to `O=C(O)C1C2CC3CC(C2)CC1C3` (configuration not stated), the melting point was 121 to 123 °C. Turning to `Cn1c(=O)oc2ccc(N)cc21`, the melting point was in the range of 229 to 231 °C. For `Cc1sc(N)nc1-c1ccc(F)cc1` the value was 122 to 124 °C; for `NC(=O)c1ccc(N2CCC(C(=O)O)CC2)nc1`, 284 to 286 °C; for `ClCc1nnnn1-c1ccccc1Br`, 45 to 47 °C. Under `CCN(C)c1ccc(C(C)=O)cc1` stands 41 to 43 °C; under `Nn1c(S)nnc1-c1ccncc1`, 250 to 254 °C.

`COc1ccc(Cc2nnc(S)o2)cc1OC` returned a melting point of 202 to 204 °C. Under `O=C(O)CN1C(=O)c2ccccc2C(F)(F)C1=O` stands 203 to 205 °C; under `NC(=NO)c1cccnc1Oc1ccccc1`, 152 to 154 °C; under `Nc1ccc(Oc2ccc(C(F)(F)F)cc2)nc1`, 116 to 118 °C. For `CCN(CC)Cc1ccc(O)c2ncccc12` the value was 60 to 62 °C; for `O=C(O)c1ccccc1C(=O)c1cccs1`, 141 to 143 °C; for `Cc1cc(Br)c(NC(=O)CCl)c(Br)c1`, 177 to 178 °C.

With `COc1ccccc1-c1noc(CCl)n1`, the melting point is 61 to 63 °C.

As for `O=[N+]([O-])c1cc(I)ccc1Cl`, the melting point fell in the range of 71 to 73 °C. Compound `O=C(O)CCc1nc(-c2ccccc2)no1` had a melting point of 138 to 140 °C. As for `O=Cc1ccc(-c2ccc(F)cc2)o1`, the melting point was in the range of 79 to 81 °C. As to `ClCc1noc(-c2ccc(Cl)cc2)n1`, the melting point lay within 79 to 81 °C. Under `Cn1c(C(F)(F)F)nc2cc(C(=O)O)ccc21` stands 254 to 256 °C. For `CC(=O)c1ccc(OCC(=O)Nc2ccccc2)cc1` the value was 94 to 96 °C. Compound `CC(C)NC(=O)N(C)c1ccc(O)cc1` returned a melting point of 158 to 160 °C.

For the compound `Fc1cc2ncnc(Cl)c2cc1F`, the melting point was 89 to 91 °C.

`O=c1oc2ccc([N+](=O)[O-])cc2n1CCCBr`: the melting point is 109 to 111 °C. Under `Nc1ccc(-c2noc(=O)[nH]2)cc1` stands 198 to 200 °C; under `Nc1cccc(-c2ccc3ccccc3c2)n1`, 124 to 126 °C.

Take `Cc1ccc(/C=C/S(=O)(=O)Cl)cc1`: the melting point was in the range of 111 to 113 °C. Turning to `Nc1ccc(Oc2ccc(Br)cc2)cc1`, the melting point is 58 to 60 °C. Turning to `NC(=S)NCc1cccc(C(F)(F)F)c1`, the melting point lay in the range of 97 to 99 °C. In turn, `FC(F)Sc1ccc(Nc2nnc(S)s2)cc1` registered a melting point of 188 to 190 °C. In turn, `O=C(CC1CCCCC1)NCCC1CNc2ccccc21` (configuration not stated) gave a melting point of 124 to 126 °C. Under `O=C(O)c1ccc(-c2cscn2)cc1` stands 278 to 280 °C; under `COc1ccccc1CNC(N)=O`, 124 to 126 °C; under `N#CCCN1C(=O)NC2(CCCC2)C1=O`, 104 to 106 °C. `COc1ccc(-c2ccc(CN)s2)cc1` came in with a melting point of 114 to 116 °C. For `O=C1CN(c2ccc(O)cc2)C(=O)N1`, the melting point was 325 to 327 °C. For `NN=c1ccc(C(N)=O)n[nH]1` the value was 251 to 253 °C; for `NS(=O)(=O)c1ccc2c(c1)C(=O)C(=O)N2`, 258 to 260 °C; for `O=C1CCCCN1c1ccc(Br)cc1F`, 96 to 98 °C. In the case of `O=C(O)CCc1ccc(S(=O)(=O)N2CCCC2)cc1`, the melting point was in the range of 137 to 139 °C. Under `NCCCN1CCN(c2ncccn2)CC1` stands 72 to 74 °C. For `Cc1ccc(F)cc1Nc1ncc(C(=O)O)cc1Cl` the value was 209 to 211 °C; for `N#Cc1ccc(OC(F)F)c(N)c1`, 86 to 88 °C; for `Cc1cc(S(=O)(=O)Cl)ccc1[N+](=O)[O-]`, 48 to 50 °C. Regarding `CC(Cl)C(=O)N1c2ccccc2CC1C` (configuration not stated), the melting point was 135 to 137 °C. Under `NC(=O)Cc1ccc(Br)cc1` stands 194 to 196 °C; under `O=C(O)c1ccc(I)c(Br)c1`, 243 to 245 °C; under `O=Cc1ccc(-c2c(F)cccc2F)o1`, 51 to 53 °C. For `COc1ccc(S(N)(=O)=O)cc1OC` the value was 135 to 137 °C; for `O=[N+]([O-])c1cc(S(=O)(=O)N2CCCCC2)ccc1Cl`, 61 to 63 °C; for `CC(C)(C(=O)O)S(=O)(=O)c1ccc(Br)cc1`, 162 to 164 °C. For `CC(=O)c1c(C)[nH]c(N=Nc2cccc(C(=O)O)c2)c1C` the value was 203 to 205 °C; for `O=Cc1ccc(N2CCC(O)CC2)o1`, 103 to 105 °C.

`Cn1cccc1C=CC(=O)O`: the melting point was in the range of 153 to 155 °C.

As to `Cc1c(Cl)cnc(NC(=O)CCl)c1Cl`, the melting point lay in the range of 268 to 270 °C. Under `Cn1c(CO)nc2ccccc21` stands 144 to 146 °C. In the case of `CC1(c2ccc(S(N)(=O)=O)cc2)NC(=O)NC1=O` (configuration not stated), the melting point was 249 to 251 °C.

Compound `CC(C)(C)Nc1nccs1` showed a melting point of 83 to 85 °C.
